This is an account of results in patent publication US20230285310A1, “COMPOSITIONS FOR THE DELIVERY OF PAYLOAD MOLECULES TO AIRWAY EPITHELIUM” (ModernaTX, Inc., priority 2020, published 2023).

Counter-ions that a name gives are not always drawn.

The subject of one assay is HeLa cells. As to the kind of experiment: Protein expression assay in HeLa cells (One-Glo luciferase, NPI-Luc mRNA). Particulars: 5 h, no serum, 4 wells, sterol amine post-added to LNP core Compound 18, DSPC, Cholesterol plus DMG-PEG 2K (SA3, SA11, SA24, SA26, SA39, SA32), plus Compound 428 (SA4, SA6, SA10, SA16), or plus β-sitosterol and DMG-PEG 2K (SA23, SA29, SA30, SA31). In kind it is cell-based, human. On the procedure:
To evaluate protein expression In Vitro, HeLa cells from ATCC.org (ATCC CCL-2) are used. The cells are cultured in complete Minimum Essential Medium (MEM) and are plated in 96 well Cell Carrier Ultra plate with PDL coated surface (PerkinElmer) prior to running an experiment.
LNPs encapsulating NPI-Luc mRNA were dosed with MEM media in the absence of serum. LNP transfected cell were incubated for 5 h post LNP transfection, the cells were imaged live using Opera Phoenix spinning disk confocal microscope (PerkinElmer). Cells were detected using DAPI (405 nm channel), and image analysis was performed in Harmony 4.9, to quantify the number of cells. After imaging the cells were processed with One-Glo Luciferase assay (Promega) to quantify protein expression. Results were reported in relative luminescence units (RLU) normalized to cells counts.
LNPs were prepared according to Example 2 using NPI-Luc as the mRNA construct. NPI-Luc is a dual read reporter made by adding a 5xV5 tag and a C-myc nuclear localization sequence at the N-terminus of Firefly Luciferase to enhance the signal to noise ratio. Protein expression can be detected using OneGLo assays with luminescence readout or by immunofluorescence with anti-V5 antibodies. Protein expression was evaluated according to the procedure outlined in Example 7. The LNPs are dosed in 4 wells and the average response was reported. For the HeLa assay the luminescence read (RLU) were normalized to cell counts.

Assay [1] deals with respiratory epithelium. As to the kind of experiment: LNP protein expression in mouse after single dose of mRNA-LNP by intratracheal delivery (anti-V5 IHC). In kind it is in vivo. The following applies: intratracheal instillation, ~0.7 mpk, NPI-Luc mRNA, core with β-sitosterol for SA23, SA31. On the procedure: (§1) Animals are anesthetized under isoflurane. The tongue is displaced and a small diameter cannula is inserted into the trachea (oropharyngeal route). The cannula tip is passed through the vocal chords, down the trachea so that the tip is very near, but not touching, the carina. Upon placement, 50 μL (mouse) or 200 μL (rat) of formulation is infused into the lungs. After 30 seconds upright, animals are released into a recovery cage and returned to their respective cages once recovered. Trachea, lungs and for the aerosol study nasal cavities, nasopharynx and larynx are collected for analysis. Lungs are inflated with 10% NBF fixative and trachea tied off to maintain inflation. Lungs are removed en bloc with attached trachea, bronchi and lobes. Whole lungs en bloc are fixed in 10% NBF at room temperature for at least 24 hours with a maximum of 48 hours and then removed from fixative and placed in PBS. Samples are immediately sent to be processed for paraffin 5-micron sections and H&E staining. IHC was performed on FFPE sections using the Leica Bond RX autostainer. […] Images were imaged at 20× magnification with the Panoramic 250 Flash III whole slide scanner. Image analysis was completed with Indica Labs HALO image analysis software. […] LNPs were prepared according to Example 2 using NPI-Luc as the mRNA construct. LNPs were delivered to mice by intratracheal instillation for a dose of ˜0.7 mpk. LNP protein expression in respiratory epithelium was evaluated according to sample collection and assay procedures A and B. The results are shown in Table 13a.

The subject of assay [2] is respiratory epithelium. As to the kind of experiment: LNP protein expression in rat after single dose of mRNA-LNP by intratracheal delivery (anti-V5 IHC). In kind it is in vivo. The following applies: intratracheal instillation, ~1.2 mpk, NPI-Luc mRNA, core with β-sitosterol for SA23. As to the method: as §1, with “LNPs were delivered to mice by intratracheal instillation for a dose of ˜0.7 mpk.” left out, “13b.” for “13a.”

Assay [3] deals with respiratory epithelium. As to the kind of experiment: LNP protein expression in rat after single dose of mRNA-LNP by nose-only aerosol delivery (anti-V5 IHC). The following applies: LNP per Example 8. In kind it is in vivo. The source says:
Aerosol is generated using a vibrating mesh nebulizer and a defined inlet air flow rate. Aerosol is introduced into the rodent nose-only directed flow exposure chamber by first passing through a mixing chamber before flowing into the exposure tier. Animals are exposed to fresh aerosol at each nose port, which is then exhausted out of the system.
Animals were trained to the nose-only dosing cones for three days prior to initiation of the study. On study day, animals were placed into the dosing cones that were then attached to the aerosol exposure chamber for designated exposure times of 60, 120 or 240 minutes per group for lung doses of 0.4, 0.6 and 1.1 mpk. Animals were monitored continuously throughout the entire exposure and subsequently for any observable adverse reactions. Aerosol concentration (mRNA) and aerodynamic particle size distribution were monitored at the dosing port before and after each dosing occasion to evaluate achieved dose levels and respirable aerosol particle size targets (1-4 μm for rat) respectively.
Trachea, lungs and for the aerosol study nasal cavities, nasopharynx and larynx are collected for analysis. Lungs are inflated with 10% NBF fixative and trachea tied off to maintain inflation. Lungs are removed en bloc with attached trachea, bronchi and lobes. Whole lungs en bloc are fixed in 10% NBF at room temperature for at least 24 hours with a maximum of 48 hours and then removed from fixative and placed in PBS. Samples are immediately sent to be processed for paraffin 5-micron sections and H&E staining.
For the aerosol study, nasal cavities, nasopharynx and larynx were also collected in addition to trachea and lungs.
IHC was performed on FFPE sections using the Leica Bond RX autostainer. NPI-Luc protein expression was detected by anti-V5 tag antibody at a 1:100 dilution. V5 antibody was detected with the Bond Polymer Refine Detection kit followed by hematoxylin and bluing reagent counterstain. Images were imaged at 20× magnification with the Panoramic 250 Flash III whole slide scanner. Image analysis was completed with Indica Labs HALO image analysis software. Trachea, lung and/or nasal cavity images were analyzed to capture total tracheal, bronchial or nasal epithelial cells and data expressed when appropriate as p % V5 positive epithelial cells per total epithelial cells per animal.
LNPs were prepared according to Example 8 using NPI-Luc as the mRNA construct. LNPs were delivered to rats by aerosol delivery using a nose-only aerosol dosing system. LNP protein expression in respiratory epithelium was evaluated according to sample collection and assay procedures A and B. The results are shown in Table 13c. Respiratory epithelium in the nasal cavity, trachea and bronchi were positive for protein expression after aerosol delivery of LNPs.

[4] abbreviates: Rat Bronchi (left and right lung).

Consider `CC(C)CCC[C@@H](C)[C@H]1CC[C@H]2[C@@H]3CC=C4C[C@@H](OC(=O)NCCNC(=N)N)CC[C@]4(C)[C@H]3CC[C@]12C` [SA23, (3S,8S,9S,10R,13R,14S,17R)-10,13-dimethyl-17-((R)-6-methylheptan-2-yl)-2,3,4,7,8,9,10,11,12,13,14,15,16,17-tetradecahydro-1H-cyclopenta[a]phenanthren-3-yl (2-guanidinoethyl)carbamate, hydrochloride salt], for which, in the assay on HeLa cells, the “Average protein expression per cell (RLU per cell)” value came out at 868.8 RLU per cell. Besides, the “Average % V5 positive cells/total cells” value is listed as 0.98% with respiratory epithelium [1] (Mouse Bronchi (left lung)), 0.8% with respiratory epithelium [1] (Mouse Trachea), 1.38% in the assay on respiratory epithelium [2] (setting [4]) and 0.83% with respiratory epithelium [2] (Rat Trachea).
Turning to `CC(C)CCC[C@@H](C)[C@H]1CC[C@H]2[C@@H]3CC=C4C[C@@H](OC(=O)N(CCCN)CCCCNCCCN)CC[C@]4(C)[C@H]3CC[C@]12C` [SA3, (3S,8S,9S,10R,13R,14S,17R)-10,13-dimethyl-17-((R)-6-methylheptan-2-yl)-2,3,4,7,8,9,10,11,12,13,14,15,16,17-tetradecahydro-1H-cyclopenta[a]phenanthren-3-yl (3-aminopropyl)(4-((3-aminopropyl)amino)butyl)carbamate, trihydrochloride salt], the “Average % V5 positive cells/total cells” value with respiratory epithelium [1] (Mouse Bronchi (left lung)) is reported as 9.33%; in the assay with respiratory epithelium [1] (Mouse Trachea), 40.7%; in the assay on respiratory epithelium [2] (setting [4]), 4.95%; with respiratory epithelium [2] (Rat Trachea), 2.97%; in the assay with respiratory epithelium [3] (Rat Bronchi (left and right lung), lung dose 0.4 mpk) it was 0.13%; in the assay with respiratory epithelium [3] (Rat Bronchi (left and right lung), lung dose 0.6 mpk), 0.13%. The “Average % V5 positive cells/total cells” value was 0.46% in the assay on respiratory epithelium [3] (Rat Bronchi (left and right lung), lung dose 1.1 mpk); 0.64% in the assay on respiratory epithelium [3] (Rat Nasal Cavity, lung dose 0.4 mpk); 1.20% in the assay on respiratory epithelium [3] (Rat Nasal Cavity, lung dose 0.6 mpk); 2.84% in the assay on respiratory epithelium [3] (Rat Nasal Cavity, lung dose 1.1 mpk); 0.29% in the assay on respiratory epithelium [3] (Rat Trachea, lung dose 0.4 mpk); 0.16% in the assay on respiratory epithelium [3] (Rat Trachea, lung dose 0.6 mpk). The “Average % V5 positive cells/total cells” value with respiratory epithelium [3] (Rat Trachea, lung dose 1.1 mpk) is on record as 0.65%.
